Values quoted from earlier work, collected in patent US10352931B2 (priority 2013, dated 2019).

Biological target: glutamate carboxypeptidase II (Homo sapiens, UniProt Q04609)
Details: examples of inhibitors, Table 1

Sequence of glutamate carboxypeptidase II (Q04609 whole entry, species assumed): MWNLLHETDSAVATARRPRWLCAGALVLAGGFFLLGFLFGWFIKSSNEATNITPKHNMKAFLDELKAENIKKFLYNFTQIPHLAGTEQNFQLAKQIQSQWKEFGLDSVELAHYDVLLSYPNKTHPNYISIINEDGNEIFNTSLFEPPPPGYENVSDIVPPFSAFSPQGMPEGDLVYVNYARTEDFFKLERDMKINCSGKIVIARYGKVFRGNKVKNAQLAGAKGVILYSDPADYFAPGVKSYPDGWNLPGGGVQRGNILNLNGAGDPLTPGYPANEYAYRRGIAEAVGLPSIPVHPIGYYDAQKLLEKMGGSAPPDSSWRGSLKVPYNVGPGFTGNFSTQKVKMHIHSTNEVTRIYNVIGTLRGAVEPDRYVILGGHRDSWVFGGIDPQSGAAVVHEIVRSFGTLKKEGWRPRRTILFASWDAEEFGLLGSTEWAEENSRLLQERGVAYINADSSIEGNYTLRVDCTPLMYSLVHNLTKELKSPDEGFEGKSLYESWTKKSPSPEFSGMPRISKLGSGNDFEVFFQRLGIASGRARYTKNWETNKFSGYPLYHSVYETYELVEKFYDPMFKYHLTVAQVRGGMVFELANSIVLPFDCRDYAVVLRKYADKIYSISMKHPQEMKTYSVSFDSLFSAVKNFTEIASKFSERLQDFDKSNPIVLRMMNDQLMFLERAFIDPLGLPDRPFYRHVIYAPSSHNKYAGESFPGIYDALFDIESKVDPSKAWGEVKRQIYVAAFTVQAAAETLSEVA

With “(S)-2-(hydroxypentafluorophenylmethyl-phosphinoylmethyl)pentanedioic acid” as the substance, how does the IC50 read?
The IC50 was 34 nM.
